Experimental data: publication PMC7582308, “Functional Characterization of a Dendrobium officinale Geraniol Synthase DoGES1 Involved in Floral Scent Formation” (International Journal of Molecular Sciences, 2020)

Molecular target: T1, DoGES1 (Dendrobium officinale, UniProt A0A7H9SVV5)
T1 construct: gene GES1
T1 sequence (A0A7H9SVV5 1-582): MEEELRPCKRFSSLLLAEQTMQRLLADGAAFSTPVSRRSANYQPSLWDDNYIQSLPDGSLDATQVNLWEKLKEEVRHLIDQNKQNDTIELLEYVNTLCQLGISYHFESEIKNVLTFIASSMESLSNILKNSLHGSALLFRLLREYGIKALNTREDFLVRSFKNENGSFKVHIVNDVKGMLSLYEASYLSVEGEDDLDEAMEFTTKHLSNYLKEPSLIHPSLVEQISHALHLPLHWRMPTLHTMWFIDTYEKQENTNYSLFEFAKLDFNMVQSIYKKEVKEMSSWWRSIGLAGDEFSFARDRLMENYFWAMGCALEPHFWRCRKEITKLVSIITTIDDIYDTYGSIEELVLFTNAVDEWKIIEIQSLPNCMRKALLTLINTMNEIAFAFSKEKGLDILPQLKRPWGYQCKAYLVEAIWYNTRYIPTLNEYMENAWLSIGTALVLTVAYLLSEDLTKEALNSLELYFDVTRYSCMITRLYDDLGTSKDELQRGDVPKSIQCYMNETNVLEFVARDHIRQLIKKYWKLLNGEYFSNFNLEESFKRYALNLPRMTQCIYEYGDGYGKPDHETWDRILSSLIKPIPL
Experiment: GC-MS detection of geraniol product
Assay type: biochemical
Details: 10 mM GPP, 10 mM MgCl2, 5 mM dithiothreitol, MOPSO pH 7.0, 30 °C, 1 h

CC(C)=CCC/C(C)=C/COP(=O)(O)OP(=O)(O)O [geranyl pyrophosphate]
GC-MS detection of geraniol product: After incubation with GPP as substrate for the synthesis of monoterpenes, recombinant DoGES1 proteins successfully yielded geraniol
